# In PubChem BioAssay (NCI):
#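 Results reflect a 48-hour exposure of cells in 96-well plates to compound at five concentrations. Abbreviation: GI50, concentration required for 50% inhibition of growth. Definition used: TGI = concentration required for complete inhibition of growth.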
# What was measured:
# Experiment in all cases: DTP human tumour cell line panel, 48 h
# [1] = system: COLO 205 colon
# [2] = system: DU-145 prostate
# [3] = system: HS 578T breast
# [4] = system: MDA-MB-435
# [5] = system: MOLT-4 leukemia
# [6] = system: OVCAR-4 ovarian
# [7] = system: PC-3 prostate
# [8] = system: SK-MEL-2 melanoma
# [9] = system: SNB-75 CNS
# [10] = system: UACC-257 melanoma
SMILES,GI50 [1] [µM],TGI [1] [µM],GI50 [2] [µM],TGI [2] [µM],GI50 [3] [µM],TGI [3] [µM],GI50 [4] [µM],TGI [4] [µM],GI50 [5] [µM],TGI [5] [µM],GI50 [6] [µM],TGI [6] [µM],GI50 [7] [µM],TGI [7] [µM],GI50 [8] [µM],TGI [8] [µM],GI50 [9] [µM],TGI [9] [µM],GI50 [10] [µM],TGI [10] [µM]
NC(=O)c1ccc(I)c([N+](=O)[O-])c1,> 100,> 100,> 95.3,> 100,> 66.2,> 100,> 75.6,> 100,> 71.2,> 100,17.2,32.1,> 100,> 100,> 100,> 100,> 100,> 100,> 80.4,> 100
COc1cccc(C2SC(C)C(=O)N2NC(=O)C(O)c2ccccc2)c1 (stereo not given),> 100,> 100,> 100,> 100,> 100,> 100,> 100,> 100,> 100,> 100,41.7,> 100,> 100,> 100,> 100,> 100,> 100,> 100,> 100,> 100
COc1ccc(NC(=O)c2ccc(C(F)(F)F)nc2Nc2ccc(Cl)cc2C)cc1Cl,2.72,10.7,3.75,14.2,6.9,28.3,7.99,25.9,1.56,4.93,3.18,17.5,3.53,12.1,7.33,21,6.47,23.9,10.8,24
